Data from patent US20240116933A1, “INDAZOLE AND PYRAZOLOPYRIDINE COMPOUNDS AS INHIBITORS OF NLRP3 INFLAMMASOME” (BioAge Labs, Inc., priority 2022, published 2024).

Target: T1, NLRP3 inflammasome (Homo sapiens, UniProt Q96P20)
T1 construct: endogenous in cells; host or cells: THP-1 cells (PMA-differentiated, LPS-primed, nigericin-stimulated)
Assay: THP-1 Cell-Based NLRP3 Activation Assay
Settings: THP-1 cells, PMA, 100 ng/mL LPS 3 hrs, 30 min pre-incubation with test compound, 10 μM nigericin 1 hr
Protocol: THP-1 cells are cultured in complete media (CM) until they reach logarithmic growth and achieve a viability >90%. CM is composed of RPMI-1640 (+Glutamax)/10% fetal bovine serum/55 μM β-mercaptoethanol/pen/strep. Cells are spun down and resuspended to 1,000,000 cells/mL in CM containing either 20 nM or 500 nM PMA. 150,000 cells […] are then added to each well of a 96-well TC plate and incubated for either 24 hr or 3 hr, respectively, in a standard cell culture incubator (37° C.; 5% CO2). After this incubation, the plate is tilted and media carefully removed. 200 μL of CM containing 100 ng/mL LPS is then added to the wells and the cells incubated an additional 3 hrs. The media is again removed and replaced with Opti-Mem medium containing pre-determined dilutions of test compounds in replicate wells. After a 30 min pre-incubation with test compound, 10 μM nigericin (final concentration) in Opti-Mem medium with the corresponding concentration of compound is added to the wells for an additional 1 hr. Positive control wells contain 10 μM nigericin in Opti-Mem in the absence of test compound, while negative control wells contain Opti-Mem only. […] Once supernatants are removed, the relative viability of adherent cells in the 96-well TC plate are determined using a CellTiter-Glo® luminescent cell viability assay (Promega).

T1 sequence (Q96P20 whole entry): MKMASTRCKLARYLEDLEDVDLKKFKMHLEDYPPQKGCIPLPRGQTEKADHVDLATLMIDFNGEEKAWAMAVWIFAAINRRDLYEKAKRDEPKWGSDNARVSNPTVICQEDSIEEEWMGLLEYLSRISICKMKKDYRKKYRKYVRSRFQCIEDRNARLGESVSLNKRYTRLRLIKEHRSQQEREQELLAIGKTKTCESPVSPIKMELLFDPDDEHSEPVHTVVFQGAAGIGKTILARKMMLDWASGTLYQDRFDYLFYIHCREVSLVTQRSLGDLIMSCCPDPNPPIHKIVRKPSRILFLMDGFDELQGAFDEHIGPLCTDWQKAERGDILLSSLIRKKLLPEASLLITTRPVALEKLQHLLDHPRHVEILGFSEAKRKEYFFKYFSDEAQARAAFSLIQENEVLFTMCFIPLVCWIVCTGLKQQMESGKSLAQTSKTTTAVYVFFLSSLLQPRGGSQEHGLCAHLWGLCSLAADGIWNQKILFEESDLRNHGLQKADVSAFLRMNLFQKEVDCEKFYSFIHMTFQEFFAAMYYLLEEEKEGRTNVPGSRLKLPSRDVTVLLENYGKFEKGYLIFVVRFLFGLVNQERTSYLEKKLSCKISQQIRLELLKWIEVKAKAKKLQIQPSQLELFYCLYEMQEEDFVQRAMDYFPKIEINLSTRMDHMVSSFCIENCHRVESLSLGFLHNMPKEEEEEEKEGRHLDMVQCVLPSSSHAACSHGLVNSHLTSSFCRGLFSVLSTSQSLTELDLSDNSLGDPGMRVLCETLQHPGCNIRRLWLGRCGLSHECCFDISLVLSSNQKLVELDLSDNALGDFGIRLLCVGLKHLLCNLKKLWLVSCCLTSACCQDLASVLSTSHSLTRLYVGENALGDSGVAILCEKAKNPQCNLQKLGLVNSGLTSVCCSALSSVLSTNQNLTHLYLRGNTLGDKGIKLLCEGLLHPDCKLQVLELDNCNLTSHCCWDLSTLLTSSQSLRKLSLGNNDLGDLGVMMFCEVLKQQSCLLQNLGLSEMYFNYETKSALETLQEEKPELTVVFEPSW

Row | Compound | IC50
1 | CN(Cc1cnc(CO)c2cn[nH]c12)C(=O)c1ccc(-c2cc(F)cc(Cl)c2)c(OC2COC2)c1 [Compound 152] | < 1000 nM
2 | CN(Cc1cc(O)cc2cn[nH]c12)C(=O)c1cc(F)c(-c2cccc(C#N)c2)c(OC2CC2)c1 [Compound 111] | < 1000 nM
3 | CCN(Cc1cnc(CO)c2cn[nH]c12)C(=O)c1ccc(-c2cccc(Cl)c2)c(OC2CC2)c1 [Compound 182] | < 1000 nM
4 | CCOc1cc(C(=O)N(C)Cc2cnc(C(C)O)c3cn[nH]c23)ccc1-c1nccs1 (stereo not shown) [Compound 149] | < 10000 nM
5 | Cc1nc(CO)c2cn[nH]c2c1CN(C)C(=O)c1cc(F)c(-c2cccc(Cl)c2)c(OC2CC2)c1 [Compound 040] | < 1000 nM
6 | CCN(Cc1cnc(CO)c2cn[nH]c12)C(=O)c1cc(F)c(-c2cccc(F)c2)c(OC2CC2)c1 [Compound 180] | < 1000 nM
7 | CCOc1nc(C(=O)N(C)[C@@H](C)c2cnc(C)c3cn[nH]c23)ccc1-c1cccc(F)c1 [Compound 123] | < 1000 nM
8 | CCOc1cc(C(=O)N(C)[C@H](C)c2cnc(CO)c3cn[nH]c23)ccc1-c1cccc(F)c1 [Compound 159] | < 1000 nM
9 | CCOc1cc(C(=O)N(CC)Cc2cnc(C(C)O)c3cn[nH]c23)ccc1-c1cccc(Cl)c1 (stereo not shown) [Compound 176] | < 1000 nM
10 | CC(O)c1ncc(CN(C)C(=O)c2cc(F)c(-c3cccc(Cl)c3)c(OC3CC3)c2)c2[nH]ncc12 (stereo not shown) [Compound 115] | < 1000 nM
11 | CCOc1nc(C(=O)N(C)[C@@H](C)c2ccc(CF)c3cn[nH]c23)ccc1-c1cccc(F)c1 [Compound 074] | < 50000 nM
12 | CCOc1cc(C(=O)N(C)[C@H](C)c2cnc(C)c3cn[nH]c23)ccc1-c1cccc(F)c1 [Compound 050] | < 1000 nM
13 | CC(C)Oc1cc(C(=O)N(C)Cc2cnc(C(C)O)c3cn[nH]c23)ccc1-c1cccc(Cl)c1 (stereo not shown) [Compound 141] | < 1000 nM
14 | CCOc1cc(C(=O)N(C)Cc2c(C)nc(C(C)O)c3cn[nH]c23)ccc1-c1cccc(F)c1 (stereo not shown) [Compound 079] | < 1000 nM
15 | Cc1ncc([C@@H](C)N(C)C(=O)c2cc(F)c(-c3cccc(F)c3)c(OC3CC3)c2)c2[nH]ncc12 [Compound 034] | < 10000 nM
16 | Cc1ncc(CN(C)C(=O)c2cc(F)c(-c3cccc(Cl)c3)c(OC3CC3)c2)c2[nH]ncc12 [Compound 048] | < 1000 nM
17 | CCN(Cc1cnc(C(C)O)c2cn[nH]c12)C(=O)c1ccc(-c2cccc(F)c2)c(OC2CC2)c1 (stereo not shown) [Compound 179] | < 1000 nM
18 | CCOc1cc(C(=O)N(C)Cc2cc(OC(C)=O)cc3cn[nH]c23)ccc1-c1cccc(F)c1 [Compound 007] | < 1000 nM
19 | CCOc1nc(C(=O)N(C)Cc2cc(O)cc3cn[nH]c23)ccc1-c1cccc(F)c1 [Compound 128] | < 10000 nM
20 | CCOc1cc(C(=O)N(C)Cc2c(COC)ncc3cn[nH]c23)ccc1-c1cccc(F)c1 [Compound 077] | < 1000 nM
21 | CCOc1nc(C(=O)N(C)[C@H](C)c2cnc(C)c3cn[nH]c23)ccc1-c1cccc(F)c1 [Compound 124] | < 50000 nM
22 | Cc1nc(C)c2cn[nH]c2c1CN(C)C(=O)c1cc(F)c(-c2cccc(Cl)c2)c(OC2CC2)c1 [Compound 120] | < 1000 nM
23 | CCOc1cc(C(=O)N(CC)Cc2cnc(C(C)O)c3cn[nH]c23)ccc1-c1cccc(F)c1 (stereo not shown) [Compound 067] | < 1000 nM

Row | Compound | IC50
24 | CCOc1cc(C(=O)NCc2cnc(CO)c3cn[nH]c23)ccc1-c1cccc(F)c1 [Compound 150] | < 1000 nM
25 | CCOc1cc(C(=O)N(CC)Cc2cnc(CO)c3cn[nH]c23)ccc1-c1cccc(C#N)c1 [Compound 103] | < 10000 nM
26 | CN(Cc1cnc(CF)c2cn[nH]c12)C(=O)c1cc(F)c(-c2cccs2)c(OC2CC2)c1 [Compound 105] | < 1000 nM
27 | CCOc1cc(C(=O)N(C)Cc2cc(O)c(C)c3cn[nH]c23)ccc1-c1cccc(F)c1 [Compound 015] | < 1000 nM
28 | CN(Cc1cnc(CO)c2cn[nH]c12)C(=O)c1ccc(-c2cccs2)c(OC2CC2)c1 [Compound 085] | < 10000 nM
29 | Cc1ncc2cn[nH]c2c1CN(C)C(=O)c1cc(F)c(-c2cccc(F)c2)c(OC2CC2)c1 [Compound 062] | < 1000 nM
30 | CN(Cc1cnc(CO)c2cn[nH]c12)C(=O)c1ccc(-c2cccc(Cl)c2)c(OC2CCC2)c1 [Compound 084] | < 1000 nM
31 | CCOc1cc(C(=O)N(C)Cc2cnc(CF)c3cn[nH]c23)ccc1C#CC1CC1 [Compound 001] | < 1000 nM
32 | CCC(c1cncc2cn[nH]c12)N(C)C(=O)c1ccc(-c2cccc(F)c2)c(OC2CC2)c1 (stereo not shown) [Compound 109] | < 1000 nM
33 | CC(O)c1ncc(CN(C)C(=O)c2ccc(-c3ccc(Cl)s3)c(OC3CC3)c2)c2[nH]ncc12 (stereo not shown) [Compound 168] | < 1000 nM
34 | CCOc1cc(C(=O)N(C)Cc2cnc(CO)c3cn[nH]c23)ccc1-c1nc(Cl)cs1 [Compound 157] | < 1000 nM
35 | CCOc1cc(C(=O)N(C)Cc2cc(O)cc3cn[nH]c23)cc(F)c1-c1ccccc1 [Compound 112] | < 1000 nM
36 | CCOc1nc(C(=O)N(C)[C@@H](C)c2cncc3cn[nH]c23)ccc1-c1cccc(F)c1 [Compound 056] | < 1000 nM
37 | CCOc1cc(C(=O)N(C)Cc2cnc(C(C)O)c3cn[nH]c23)ccc1-c1ccc(Cl)s1 (stereo not shown) [Compound 163] | < 1000 nM
38 | CN(Cc1c(CO)ncc2cn[nH]c12)C(=O)c1cc(F)c(-c2cccc(Cl)c2)c(OC2CC2)c1 [Compound 145] | < 1000 nM
39 | CC(C)Oc1cc(C(=O)N(C)Cc2cnc(CO)c3cn[nH]c23)ccc1-c1cc(F)cc(F)c1 [Compound 142] | < 1000 nM
40 | CN(Cc1c(CO)ncc2cn[nH]c12)C(=O)c1ccc(-c2cccc(Cl)c2)c(OC2CC2)c1 [Compound 144] | < 1000 nM
41 | CCOc1cc(C(=O)N(C)Cc2cnc(C(C)F)c3cn[nH]c23)ccc1-c1cccc(F)c1 (stereo not shown) [Compound 070] | < 1000 nM
42 | CCN(Cc1cnc(C)c2cn[nH]c12)C(=O)c1cc(F)c(-c2cccc(Cl)c2)c(OC2CC2)c1 [Compound 032] | < 1000 nM
43 | Cc1nc(CO)c2cn[nH]c2c1CN(C)C(=O)c1ccc(-c2cccc(Cl)c2)c(OC2CC2)c1 [Compound 041] | < 1000 nM
44 | CCCOc1cc(C(=O)N(C)Cc2cnc(CO)c3cn[nH]c23)ccc1-c1cccc(F)c1 [Compound 147] | < 1000 nM
45 | CCOc1cc(C(=O)N(CC)Cc2cnc(C(C)O)c3cn[nH]c23)cc(F)c1-c1cccc(Cl)c1 (stereo not shown) [Compound 172] | < 1000 nM
46 | CCOc1cc(C(=O)N(C)[C@@H](C)c2cccc3cn[nH]c23)ccc1-c1cccc(F)c1 [Compound 059] | < 1000 nM

Row | Compound | IC50
47 | CCOc1cc(C(=O)N(C)Cc2cnc(C(C)O)c3cn[nH]c23)cc(F)c1-c1cc(F)cc(Cl)c1 (stereo not shown) [Compound 096] | < 1000 nM
48 | CCOc1cc(C(=O)N(C)Cc2cnc(CO)c3cn[nH]c23)cc(Cl)c1-c1cccc(F)c1 [Compound 175] | < 10000 nM
49 | CC(O)c1ncc(CN(C)C(=O)c2ccc(-c3cccs3)c(OC3CC3)c2)c2[nH]ncc12 (stereo not shown) [Compound 083] | < 10000 nM
50 | CCOc1cc(C(=O)N(C)C(CC)c2cncc3cn[nH]c23)ccc1-c1cccc(F)c1 (stereo not shown) [Compound 117] | < 1000 nM
51 | CCOc1cc(C(=O)N(C)Cc2cnc(C)c3cn[nH]c23)cc(CF)c1-c1cccc(F)c1 [Compound 125] | < 10000 nM
52 | CCOc1cc(C(=O)N(C)Cc2cnc(C(C)O)c3cn[nH]c23)cc(F)c1-c1cccc(C#N)c1 (stereo not shown) [Compound 090] | < 10000 nM
53 | CCOc1cc(C(=O)N(C)[C@H](C)c2cccc3cn[nH]c23)ccc1-c1cccc(F)c1 [Compound 058] | < 50000 nM
54 | CN(Cc1cnc(CO)c2cn[nH]c12)C(=O)c1cc(F)c(-c2cccc(Cl)c2)c(OC2CC2)c1 [Compound 047] | < 1000 nM
55 | CCOc1cc(C(=O)N(C)Cc2cc(CO)cc3cn[nH]c23)ccc1-c1cccc(F)c1 [Compound 069] | < 1000 nM
56 | CCOc1cc(C(=O)N(C)Cc2cc(O)cc3cn[nH]c23)cc(F)c1-c1cccc(F)c1 [Compound 098] | < 1000 nM
57 | Cc1ncc(CNC(=O)c2cc(F)c(-c3cccc(Cl)c3)c(OC3CC3)c2)c2[nH]ncc12 [Compound 122] | < 1000 nM
58 | CCOc1cc(C(=O)N(CC)Cc2cnc(CO)c3cn[nH]c23)ccc1-c1cccc(F)c1 [Compound 097] | < 1000 nM
59 | CC(O)c1ncc(CN(C)C(=O)c2cc(F)c(-c3cccc(C#N)c3)c(OC3CC3)c2)c2[nH]ncc12 (stereo not shown) [Compound 091] | < 1000 nM
60 | CC(C)Oc1cc(C(=O)N(C)Cc2cnc(C(C)O)c3cn[nH]c23)ccc1-c1cc(F)cc(F)c1 (stereo not shown) [Compound 146] | < 1000 nM
61 | CCOc1cc(C(=O)N(C)Cc2cnc(C(C)O)c3cn[nH]c23)cc(F)c1-c1cc(F)cs1 (stereo not shown) [Compound 081] | < 1000 nM
62 | CCOc1cc(C(=O)N(C)Cc2cnc(C)c3cn[nH]c23)ccc1-c1cc(F)cs1 [Compound 140] | < 10000 nM
63 | CCOc1cc(C(=O)N(C)[C@@H](C)c2cnc(C)c3cn[nH]c23)ccc1-c1cccc(F)c1 [Compound 049] | < 50000 nM
64 | CCOc1cc(C(=O)N(C)Cc2cnc(C(C)O)c3cn[nH]c23)cc(F)c1-c1cccs1 (stereo not shown) [Compound 154] | < 1000 nM
65 | CN(Cc1cnc(CO)c2cn[nH]c12)C(=O)c1ccc(-c2cc(F)cc(F)c2)c(OC2COC2)c1 [Compound 155] | < 1000 nM
66 | CCOc1nc(C(=O)N(C)[C@H](C)c2cncc3cn[nH]c23)ccc1-c1cccc(F)c1 [Compound 057] | < 50000 nM
67 | CC(O)c1ncc(CN(C)C(=O)c2ccc(-c3cccc(C#N)c3)c(OC3CC3)c2)c2[nH]ncc12 (stereo not shown) [Compound 080] | < 50000 nM
